Laboratory results: paper PMC10477861, “Efficient Mining of Anticancer Peptides from Gut Metagenome” (Advanced Science, 2023)

How the values were obtained:
Conditions in all cases: 25 µM pACP, 24 h, maintenance medium 1% FBS, ratio of viability to vehicle (PBS), at least three technical repetitions
MDA-MB-231 = assay: MTT primary screening of anticancer activity, MDA-MB-231; assay type: cell-based
Method in brief: (§1)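 Primary screen at one c[…]ntration, 25 µM final. Treatment lasted 24 h in medium with 1% FBS, starting at 60% confluence, followed by MTT viability measurement.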

MCF7 = assay: MTT primary screening of anticancer activity, MCF7; assay type: cell-based
Method in brief: as §1

B16 = assay: MTT primary screening of anticancer activity, B16; assay type: cell-based, Mouse
Method in brief: as §1

SK-BR-3 = assay: MTT primary screening of anticancer activity, SK-BR-3; assay type: cell-based
Method in brief: as §1

BT474 = assay: MTT primary screening of anticancer activity, BT474; assay type: cell-based
Method in brief: as §1

MDA-MB-468 = assay: MTT primary screening of anticancer activity, MDA-MB-468; assay type: cell-based
Method in brief: as §1

T47D = assay: MTT primary screening of anticancer activity, T47D; assay type: cell-based
Method in brief: as §1

HCT116 = assay: MTT primary screening of anticancer activity, HCT116; assay type: cell-based, Human
Method in brief: as §1

EFM192A = assay: MTT primary screening of anticancer activity, EFM192A; assay type: cell-based
Method in brief: as §1

CT26 = assay: MTT primary screening of anticancer activity, CT26; assay type: cell-based, Murine
Method in brief: as §1

HT29 = assay: MTT primary screening of anticancer activity, HT29; assay type: cell-based, Human
Method in brief: as §1

Caco2 = assay: MTT primary screening of anticancer activity, Caco2; assay type: cell-based, Human
Method in brief: as §1

LCC = assay: MTT primary screening of anticancer activity, LCC; assay type: cell-based
Method in brief: as §1

MDA-MB-453 = assay: MTT primary screening of anticancer activity, MDA-MB-453; assay type: cell-based
Method in brief: as §1

Hela = assay: MTT primary screening of anticancer activity, Hela; assay type: cell-based, Human
Method in brief: as §1

MDA-MB-436 = assay: MTT primary screening of anticancer activity, MDA-MB-436; assay type: cell-based
Method in brief: as §1

Sequence	Survival rate of cancer cells in primary screening (MDA-MB-231)	Survival rate of cancer cells in primary screening (MCF7)	Survival rate of cancer cells in primary screening (B16)	Survival rate of cancer cells in primary screening (SK-BR-3)	Survival rate of cancer cells in primary screening (BT474)	Survival rate of cancer cells in primary screening (MDA-MB-468)	Survival rate of cancer cells in primary screening (T47D)	Survival rate of cancer cells in primary screening (HCT116)	Survival rate of cancer cells in primary screening (EFM192A)	Survival rate of cancer cells in primary screening (CT26)	Survival rate of cancer cells in primary screening (HT29)	Survival rate of cancer cells in primary screening (Caco2)	Survival rate of cancer cells in primary screening (LCC)	Survival rate of cancer cells in primary screening (MDA-MB-453)	Survival rate of cancer cells in primary screening (Hela)	Survival rate of cancer cells in primary screening (MDA-MB-436)
KGVRGKICKGKRCKQISNSGCDRQEIQEKQENRYRKEKQNKG [pACP886]	1.00	1.00	0.78	1.00	1.00	1.00	0.69	1.00	1.00	1.00	1.00	1.00	1.00	1.00	0.73	1.00
VAHGLDLLDGVVAEGVAAKGDDNTIGLAKRLRHCWNPFCKRPTTH [pACP2160]	1.00	1.00	0.80	1.00	1.00	0.70	0.79	1.00	1.00	1.00	1.00	1.00	1.00	1.00	1.00	1.00
NQRKRTACDRRRSICDERIAAGICKRNFRCKKYLKINGTIGLSIRLGKLG [pACP1381]	1.00	1.00	0.76	1.00	1.00	1.00	1.00	1.00	1.00	1.00	0.69	0.69	1.00	1.00	1.00	1.00
NFWLSTLTGHGFCAVVSAARAGS [pACP1292]	1.00	0.79	1.00	1.00	1.00	1.00	0.76	1.00	0.40	1.00	1.00	1.00	1.00	1.00	1.00	0.74
ERRVGYSWYGTWGNKVLKKYPEWLRRLTEKK [pACP341]	1.00	0.66	0.74	1.00	0.62	0.74	1.00	1.00	1.00	0.60	1.00	1.00	1.00	1.00	1.00	1.00
GNPAKQEIKVPGALGKGSCVQSGAGVGPRCRVPCGPLSGGMALFCYE [pACP555]	1.00	1.00	0.75	1.00	1.00	1.00	0.74	1.00	1.00	1.00	1.00	1.00	1.00	1.00	1.00	1.00
SCRNGKGISSGDRPGKAKTGISLEIGKCSYRNKGKSAENSSVAVV [pACP1869]	1.00	1.00	0.79	1.00	1.00	1.00	0.68	1.00	1.00	1.00	1.00	1.00	1.00	1.00	1.00	1.00
HPGCRKAPGCLCTGVIPSAAIPGTGFEIGGAGCFPLALNCNCATLGKV [pACP631]	1.00	1.00	0.76	1.00	1.00	1.00	0.79	1.00	1.00	1.00	1.00	1.00	1.00	1.00	1.00	1.00
